Source: patent US8552015B2, “Quinazolinone derivatives and their use as CB agonists” (Novartis AG, priority 2002, dated 2013)
Structures can show the parent of a compound that is named as a salt.

Columns and labels:
[1] = target: T1, hCB1 receptor (Homo sapiens, UniProt P21554); assay: Test I: CB1 receptor binding assay ([3H]CP55940 displacement); design: purchased Receptor Biology, Beltsville, Md; host or cells: HEK293 cells (transfected), membrane preparation; details: membranes from HEK293 cells, Ki from IC50 by Cheng-Prussoff
T1 sequence (P21554 whole entry): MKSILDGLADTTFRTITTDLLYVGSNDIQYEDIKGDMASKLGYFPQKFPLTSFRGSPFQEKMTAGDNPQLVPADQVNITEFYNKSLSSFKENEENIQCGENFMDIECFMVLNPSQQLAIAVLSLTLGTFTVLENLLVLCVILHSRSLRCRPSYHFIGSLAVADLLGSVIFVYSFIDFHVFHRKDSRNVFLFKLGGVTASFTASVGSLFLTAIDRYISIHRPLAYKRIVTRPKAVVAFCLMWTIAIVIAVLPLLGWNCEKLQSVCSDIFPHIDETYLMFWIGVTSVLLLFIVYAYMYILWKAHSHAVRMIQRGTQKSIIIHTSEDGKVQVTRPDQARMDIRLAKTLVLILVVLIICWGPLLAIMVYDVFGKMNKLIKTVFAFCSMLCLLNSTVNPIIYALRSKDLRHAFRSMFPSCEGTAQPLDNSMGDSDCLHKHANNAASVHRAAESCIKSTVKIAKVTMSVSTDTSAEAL
Description: More particularly the agents of the invention are active at the human CB1 and CB2 receptor.
(§1) The assay mixture comprises 75 μL of membrane suspension [membranes from HEK293 cells transfected with human CB1 receptors from Receptor Biology, Beltsville, Md.; 133 μg/mL in assay buffer (50 mM Tris-HCl, 2.5 mM EDTA, 5 mM MgCl2 5 mg/mL BSA, pH7.4), approx, 10 μg/well)], 25 μL WGA-YS beads [Yttrium silicate beads coated with wheat germ agglutinin, Amersham (40 mg/mL, 1 mg/well)], 50 μL test compound in 4% DMSO and 50 μL radioligand {[^3H]CP55940 (180 Ci/mmol), New England Nuclear; final concentration 0.125 nM, in assay buffer}. All components are mixed, shaken at room temperature for 2 hours, then counted on a Topcount. Non-saturable binding is measured in the presence of 10 μM (R)-(+)-[2,3-dihydro-5-methyl-3-[(4-morpholinyl)methyl]pyrrolo[1,2,3-de]-1,4-benzoxazin-6-yl](1-naphthalenyl)methanone (WIN55,212-2, Tocris).
The IC50 values are calculated in ORIGIN using a logistic fit. Ki values are calculated from the IC50 values using the Cheng-Prussoff equation (Ki=IC50/(1+([L]/Kd)) where [L] is the ligand concentration. • Test II: CB2 Receptor Binding Assay

[2] = system: neuropathic pain induced by partial ligation of the sciatic nerve; assay: Test III: Neuropathic pain model (partial ligation of the sciatic nerve, mechanical hyperalgesia); format: in vivo, Wistar-rats; details: p.o.; dose necessary to produce 50% reversal of hyperalgesia
Text: Activity specifically as analgesic agents may be confirmed in accordance with standard test methods, e.g. as described in the following test. • Test III: Neuropathic Pain Model
Hyperalgesia is examined in the model of neuropathic pain induced by partial ligation of the sciatic nerve as described by Seltzer et al. (1990). Briefly, Wistar-rats (120-140 g) are anaesthetised, the left sciatic nerve exposed at mid-thigh level through a small incision and ⅓ to ½ of the nerve thickness tightly ligated within a 7.0 silk suture. The wound is closed with a single muscle suture and skin clips and dusted with Aureomycin antibiotic powder. The animals are allowed to recover and used 12-15 days following surgery.
Mechanical hyperalgesia is assessed by measuring paw withdrawal thresholds to an increasing pressure stimulus placed onto the dorsal surface of the paw using an analgesymeter (Ugo-Basile, Milan) with a cut-off of 250 g. Withdrawal thresholds are measured on both the ipsilateral (ligated) and contralateral (unligated) paw prior to (predose) and then up to 6 h following drug or vehicle administration. Data are expressed as withdrawal threshold (g) and percentage reversal of hyperalgesia calculated according to the following formula:
[formula] • Potency is expressed as D50 value, i.e. the dose of compound necessary to produce 50% reversal of hyperalgesia.

[3] = target: T2, human CB2 receptors (Homo sapiens, UniProt P34972); assay: Test II: CB2 receptor binding assay ([3H]CP55940 displacement); details: membranes from CHOK1 cells, Ki from IC50 by Cheng-Prussoff
T2 construct: purchased Receptor Biology, Beltsville, Md; host or cells: CHOK1 cells (transfected), membrane preparation
T2 sequence (P34972 whole entry): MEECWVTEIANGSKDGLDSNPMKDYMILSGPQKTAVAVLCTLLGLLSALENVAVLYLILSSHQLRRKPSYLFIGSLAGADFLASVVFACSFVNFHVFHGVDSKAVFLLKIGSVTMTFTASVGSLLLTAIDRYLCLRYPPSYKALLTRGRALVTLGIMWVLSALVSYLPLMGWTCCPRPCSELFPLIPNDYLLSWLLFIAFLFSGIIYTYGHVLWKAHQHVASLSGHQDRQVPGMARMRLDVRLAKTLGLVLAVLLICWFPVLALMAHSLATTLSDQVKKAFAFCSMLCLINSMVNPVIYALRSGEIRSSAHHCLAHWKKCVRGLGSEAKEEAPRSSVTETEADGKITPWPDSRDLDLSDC
Description: as §1, with “CHOK1” for “HEK293”, “CB2” for “CB1”, “mg/well)),” for “mg/well)],”, “(R)-(+)-[2,3-d]hydro-5-methyl-3-[(4-morpholinyl)methyl]pyrrolo[1,2,3-de]-1,4-benzoxazin-6-yl](1-naphthalenyl)methanone” for “(R)-(+)-[2,3-dihydro-5-methyl-3-[(4-morpholinyl)methyl]pyrrolo[1,2,3-de]-1,4-benzoxazin-6-yl](1-naphthalenyl)methanone”
The IC50 values are calculated in ORIGIN using a logistic fit. Ki values are calculated from the IC50 values using the Cheng-Prussoff equation (Ki=IC50/(1+([L]/Kd)) where [L] is the ligand concentration.

[4] = target: T1, hCB1 receptor; assay: Test IV: CB1 functional assay ([35S]GTPγS binding); format: biochemical; design: purchased Receptor Biology Inc RBhCB1 382200; host or cells: HEK293 cells, membrane preparation; details: hCB1 receptor membrane (HEK293 cells)
Description: G-protein activation is used as a functional measure of receptor-ligand association for G-protein coupled receptors. The basic mechanism behind G-protein activation is the exchange of bound guanosine 5′-diphosphate (GDP) for guanosine 5′-triphosphate (GTP). Using a radioactive, non-hydrolyzable form of GTP, such as guanosine 5′-O-(3-[^35S]thiophosphate ([^35S]GTPγS), G-protein activation is assessed by measuring the accumulation of membrane-bound radioactivity in response to receptor activation.
The plate is sealed with a topseal A cover and vortexed for 2 minutes. The plate is incubated at room temperature for 60 min., centrifuged (Beckman 6JB) at 800 g for 5 minutes and counted on a Topcount for 3 minutes.
Non-specific binding is determined using 10 μM GTPγS, and this is subtracted from all values. Basal binding is assayed in the absence of agonist and in the presence of GDP. The stimulation by agonist is defined as a percentage increase above basal levels, i.e., {[cpm(agonist)−cpm(no agonist)]/cpm(no agonist)}×100
Data are reported as mean ±S.E.M. of one to six experiments performed in triplicate. Non-linear regression analysis of concentration-response data is performed using Origin version 5, (logistics algorithm; Microcal Software Inc. MA, USA) to calculate percentage maximal effect (Emax, %) and EC50 (nM) values. […]

Question: Which melting point does the source give for `CCNC(=O)OCc1nc2cc(C)c(C(=O)OCC)c(C)c2c(=O)n1-c1ccccc1S(=O)(=O)NC` (as salt: hydrochloride) here?
Answer: 126 to 130 °C

Question: Which Ki [1] does the source give for `CCOC(=O)c1c(C)cc2nc(COC(=O)NCCO)n(-c3ccccc3S(=O)(=O)NC)c(=O)c2c1C` [Example 2, 2-(2-Hydroxy-ethylcarbamoyloxymethyl)-5,7-dimethyl-3-(2-methylsulfamoyl-phenyl)-4-oxo-3,4-dihydro-quinazoline-6-carboxylic acid ethyl ester] here?
Answer: 34 ± 3 nM

Question: And the “D50 value in the neuropathic pain model of test III” value [2]?
Answer: 0.5 mg/kg

Question: And the Ki [3]?
Answer: 11 ± 3.5 nM

Question: And the EC50 [4]?
Answer: 132 ± 19 nM
